In patent US12215106B2, “Pharmaceutical compounds and therapeutic methods” (RUTGERS, THE STATE UNIVERSITY OF NEW JERSEY, priority 2018, dated 2025):

Key:
in vitro = in vitro ADME, mice; details: mouse; for fraction unbound at 4 h, 5 μM: plasma
Procedure: (§1) The objective of this study was to evaluate protein binding test compounds in mice plasma. This was accomplished by spiking the test compounds at a concentration of 5 μM into mice plasma and dialyzing against buffer until equilibrium is achieved (4 hours). Analyte area ratios of the test compounds in plasma and buffer were determined to calculate unbound and bound percentages of compound to the plasma proteins.
(§2) Phosphate buffered saline pack (0.1 M sodium phosphate and 0.15 M sodium chloride, pH 7.2) was dissolved in 500 mL of deionized water and pH was adjusted to 7.4 with 0.5 N NaOH.
(§3) 1 mM stock solutions were prepared in DMSO and diluted 200-folds in mice plasma to prepare a concentration of 5 μM. The final DMSO concentration in plasma was 0.5%.
(§4) Rapid equilibrium dialysis was performed with a rapid equilibrium dialysis (RED) device containing dialysis membrane with a molecular weight cut-off of 8,000 Daltons. Each dialysis insert contains two chambers. The red chamber is for plasma while the white chamber is for buffer.
(§5) A 200 μL aliquot of warfarin and test compound at 5 (triplicates) were separately added to the plasma chamber and 350 μL of phosphate buffer saline (pH 7.4) was added to the buffer chamber of the inserts. After sealing the RED device with an adhesive film, dialysis was performed in incubator at 37° C. with shaking at 100 RPM for 4 hours.
(§6) A 50 μL aliquot of warfarin and test compounds were added to four 0.5 mL microfuse tubes. Two aliquots were frozen immediately (0 minute sample). The other two aliquots were incubated at 37° C. for 4 hours along with the RED device.
(§7) Following dialysis, an aliquot of 50 μL was removed from each well (both plasma and buffer side) and diluted with equal volume of opposite matrix (dialyzed with the other matrix) to nullify the matrix effect. Similarly, 50 μL of buffer was added to recovery and stability samples. An aliquot of 100 μL was submitted for LCMS/MS analysis.
(§8) A 25 μL aliquot of warfarin and test compounds were crashed with 100 μL of acetonitrile containing internal standard (glipizide) and vortexed for 5 minutes. The samples were centrifuged at 4000 RPM at 4° C. for 10 min and 100 μL of supernatant was submitted for LC-MS/MS analysis. Samples were monitored for parent compound in MRM mode using LC-MS/MS.
(§9) The peak area ratios (analyte versus internal standard) obtained were used to determine the fraction of compound bound to plasma proteins.

mice plasma = assay: in vitro; assay type: in vitro ADME; details: mouse, plasma, 4 h, 5 μM
Procedure: as §1, §2, §3, §4, §5, §6, §7, §8, §9

[1] = Bi-directional Caco-2 transport assay; assay type: in vitro ADME; details: human, Caco-2, 5 μM
Procedure: (§10) The objective of the study is to evaluate test compounds as substrates for efflux transporter using Caco-2 cell line. To assess the functionality of P-glycoprotein (P-gp), loperamide was run as a positive control (Apical and basolateral HBSS pH 7.4).
(§11) 5 mM DMSO stock of test compounds and loperamide was diluted 1000-folds in HBSS having 0.1% DMSO to prepare concentrations of 5 μM.
(§12) Caco-2 cells were grown in DMEM (20% FBS) until 85-90% confluence. After attaining required confluence, cells were trypsinized and seeded into 24 well millcell plates at a density of 0.6×10^5 cells/insert. The plates were maintained for 21 days at 37° C. in CO2 incubator with change of medium every alternative day. Monolayer integrity was monitored by measuring Trans-epithelial electrical resistance (TEER) from day 15.
(§13) Caco-2 cell monolayer was washed twice with HBSS and incubated for 40 min in CO2 incubator. TEER values were measured and wells showing TEER values above 230 ohms·cm^2 were taken for experiments. The study was performed in loperamide and test compounds by adding 400 μL of loperamide prepared in HBSS in apical (A-B transport) followed by addition of 800 μL of HBSS on basal side and for B-A transport 800 μL of loperamide prepared in HBSS was dosed in basal followed by addition of 400 μL HBSS on apical side. At selected time points (0, 15, 30, 60 and 90 mins) an aliquot of 50 μL was collected from the receiver compartment for determination of test compound concentrations. The volume withdrawn was replaced immediately with HBSS buffer. TEER was measured at the end to the experiment to confirm any damage of monolayer while performing experiment. Those wells with TEER not meeting the criteria were excluded from the study.
(§14) A 50 μL of test compound samples collected at respective time points and submitted for LC-MS/MS analysis.
(§15) The apparent permeability (Papp) (A−B & B−A) of test compounds and positive control was calculated using the following formula: Papp=dQ/dt/A·Co where, dQ/dt=linear slope of test compound concentration in receptor chamber with time (0, 15, 30, 60 and 90 min) after correcting for dilution; A=area of the filter (0.7 cm^2); and Co=initial concentration of compound in the donor compartment.
(§16) Efflux ratio (RE) was calculated using the following equation: RE=PB/A/PA/B where PB/A and PA/B represent the apparent permeability of test compound from the basal to apical and apical to basal side of cell monolayer.
(§17) Recovery represents: (amount of the compound recovered from donor at end of incubation+cumulative amount of compound in acceptor at end of incubation+amount of the compound in cell lysate or assay well)/amount of compound in donor solution at time zero*100
(§18) Compounds are classified based on Papp values as follows:
(§19) A compound having efflux ratio of >2 is considered as having potential as a P-gp substrate.

P-gp = assay: Bi-directional Caco-2 transport assay; assay type: in vitro ADME; details: human, Caco-2; efflux ratio >2: potential P-gp substrate; read-out: Efflux Ratio (B-A/A-B)
Procedure: as §10, §11, §12, §13, §14, §15, §16, §17, §18, §19

Structure (SMILES) | recovery at 4 h, 5 µM (in vitro; Plasma, pH 7.4) [%] | fraction unbound at 4 h, 5 μM (in vitro; pH 7.4, % Bound Mean ± SD) | fraction unbound at 4 h, 5 μM (in vitro; pH 7.4, % Bound R1) | fraction unbound at 4 h, 5 μM (in vitro; pH 7.4, % Bound R2) | fraction unbound at 4 h, 5 μM (in vitro; pH 7.4, % Bound R3) | % compound remaining at 4 hrs (mice plasma) [%] | Papp A→B at 90 min, 5 μM ([1]; HBSS pH 7.4, apical to basal, read-out: Papp (A-B)) [×10⁻⁶ cm/s] | Papp B→A at 90 min, 5 μM ([1]; HBSS pH 7.4, basal to apical, read-out: Papp (B-A)) [×10⁻⁶ cm/s] | efflux ratio at 90 min, 5 μM (P-gp)
CC(=O)CC(c1ccccc1)c1c(O)c2ccccc2oc1=O (stereo not drawn) [Warfarin, reference compound] | 109 | 0.069 | 0.071 | 0.075 | 0.062 | 94 |  |  | 
CN(C)C(=O)C(CCN1CCC(O)(c2ccc(Cl)cc2)CC1)(c1ccccc1)c1ccccc1 [Loperamide, reference compound] |  |  |  |  |  |  | 1.6 ± 0.2 | 8.4 ± 1.2 | 5.2
